Ends that are not written are not given here.

Series [1] is described as follows: Plasma concentration in cynomolgus monkey after intravenous injection. It counts as in vivo. The conditions noted are these: male, 1 nmol/kg intravenous. As for the experimental part: FIG. 11B is a graph showing plasma concentration of SP-PTH (SEQ ID NO:11) in monkey following intravenous injection of 1 nmol/kg.
The effects of the SP-PTH (SEQ ID NO:11) and SP-PTH-AAK (SEQ ID NO:4) (“SP-AAK”) on serum and urinary calcium and phosphate levels were tested in cynomolgus monkeys. Briefly, three- or four-year-old, male cynomolgus monkeys (HAMRI Co., Ltd., Ibaraki, Japan) were measured for their body weight. Blood was collected into tubes. Monkeys received intravenous or subcutaneous administration of each polypeptide at a dose of 0.3 ml/kg. Polypeptide concentrations in stock solution were adjusted by dilution with 25 mmol/L phosphate-citrate buffer/100 mmol/L NaCl/0.05% Tween 80 (pH.5.0) (PC-buffer). All polypeptides were allowed to stand on ice immediately before administration. Polypeptides were administered to groups of three monkeys each respectively. At 1, 2, 4, and 8 hours after administration, blood was collected by saphenous vein to monitor the time course of calcium and phosphorus levels (FIG. 11A).

The nature of series [2]: Solubility, in vitro precipitation assay (PBS pH 7.4 vs 10 mM acetic acid). Particulars: PBS pH 7.4, 1 h room temperature, FIG. 16A. It counts as physicochemical. On the procedure: The relative solubilities of SP-PTH-AAK (SEQ ID NO:4) and SP-PTH (SEQ ID NO:11) in different buffers were assessed in an in vitro precipitation assay. For each polypeptide, two vials, each containing 50 μg of lyophilized polypeptide powder, were prepared; one vial was reconstituted in 50 μl of PBS at pH 7.4; the other vial was reconstituted in 50 μl of 10 mM acetic acid (pH 2.9) to give final concentrations of 1.0 mg/ml […]. After one hour at room temperature, the vials were centrifuged at 15,000×g for 2 minutes. The supernatant was removed and the protein content assayed using the Pierce BCA assay (Thermo Fischer Scientific, Rockford, Ill.). For each polypeptide, the content of the PBS sample was expressed as percent of the content of the corresponding acetic acid sample.

In a further series the target is T1, human PTHR1 (RG) (Homo sapiens, UniProt Q03431).
T1 construct: expressed in transfected cells; host or cells: COS-7 cells (membranes)
T1 sequence (Q03431 27-593): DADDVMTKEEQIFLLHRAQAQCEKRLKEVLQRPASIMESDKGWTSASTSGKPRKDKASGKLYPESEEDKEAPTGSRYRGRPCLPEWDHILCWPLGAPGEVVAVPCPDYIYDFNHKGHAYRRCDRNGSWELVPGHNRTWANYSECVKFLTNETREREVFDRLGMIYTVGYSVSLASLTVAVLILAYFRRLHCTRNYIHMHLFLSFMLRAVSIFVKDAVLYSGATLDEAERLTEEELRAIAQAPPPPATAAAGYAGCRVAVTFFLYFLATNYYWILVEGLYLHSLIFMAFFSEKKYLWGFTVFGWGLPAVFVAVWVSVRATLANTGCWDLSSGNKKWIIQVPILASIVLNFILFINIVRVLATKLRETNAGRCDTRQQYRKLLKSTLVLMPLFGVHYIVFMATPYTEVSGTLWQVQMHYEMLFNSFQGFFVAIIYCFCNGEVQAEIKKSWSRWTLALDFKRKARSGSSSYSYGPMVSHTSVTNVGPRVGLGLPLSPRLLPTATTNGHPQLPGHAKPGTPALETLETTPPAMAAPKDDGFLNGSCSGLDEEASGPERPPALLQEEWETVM
In words: Competition binding, RG conformation of human PTHR1 (COS-7 membranes). The conditions noted are these: mean of 3 experiments, read-out: Binding human PTHR1 IC50 (Log M) RG (converted). On the procedure:
Briefly, the R^0 form of the receptor can be favored by addition of the non-hydrolyzable nucleotide analog GTPγS. The RG form can be favored, for example, by co-transfection of cells with a negative dominant Gαs subunit. […] Data are means of four experiments, each performed in duplicate. Curves were fit to the data using Graph-Pad Prism 4.0.
Here, competition binding assays for the R^0 and RG PTHR1 conformation were performed in membranes prepared from transfected COS-7 cells, as described by Dean et al., Mol Endocrinol 22:156-66, 2008. Data are means of three experiments, each performed in duplicate. Curves were fit to the data using Graph-Pad Prism 4.0.

For orientation: half-life means the time in which the quantity being followed falls by half. Take “AVAEIQLMHQRAKWIQDLRRRFFLHHLIAEIHTAEI-OH [SP-PTH, [Ala^1,3,12,Gln^10,Arg^11,Trp^14]PTH(1-14)/PTHrP(15-36)]”: the half-life in series [1] is approximately 4 min.

The term IC50 denotes the concentration at which inhibition is half-maximal. As for “AVAEIQLMHQRAKWIQDARRRAFLHKLIAEIHTAEI-OH [SP-PTH-AAK, [Ala^1,3,12,18,22,Gln^10,Arg^11,Trp^14,Lys^26]PTH(1-14)/PTHrP(15-36)]”, the “solubility in PBS pH 7.4 (percent of acetic acid sample), in words” value in series [2] is “solubility similar to hPTH(1-34)NH2”. Also, the IC50 on human PTHR1 (RG) was 0.224 nM.
